Where “and” joins values, the source holds several entries; their conditions need not be identical. Identical values can stand only once.
Assays:
[1] = Pharmacokinetic study in rats after oral administration of TMYX extract (HPLC-MS/MS of plasma); assay type: in vivo, Sprague–Dawley rats; settings: rat plasma; for AUC(0-inf) / half-life / AUC / k el: male, Sprague-Dawley; for AUC: read-out: AUC (0-tn); for k el: read-out: K e (converted); for T max1: n=6, mean ± SD
Description: The HPLC-MS/MS system consists of an Agilent 1200 high-performance liquid chromatography coupled with an Aglient 6430 series triple quadrupole mass spectrometer with an electrospray ionization (ESI) source. The chromatographic separation was achieved on a CORTECS C18 column (4.6 mm × 150 mm, 2.7 μm), and the column temperature was kept at 30°C. Mobile phases which consisted of 0.1% formic acid in water (A) and acetonitrile (B) were used in the following gradient elution method: 0-10 min, 10%-85% B; 10-13 min, 85%-95% B; 13-19 min, 95%-95% B. The flow rate was set at 0.3 mL/min, and the injection volume was 10 μL. All data were analyzed by Mass Hunter workstation software (Agilent Technologies, USA).
The mass spectrometer was carried out in both positive and negative ionization multiple-reaction monitoring (MRM) mode. The source parameters were as follows: the capillary voltage set at 300 V for positive ionization mode and -300 V for negative ionization mode, the drying gas temperature was 320°C, the flow was 11 L/min, and nebulizing gas pressure was 30 psi.
The plasma (100 μL) was spiked with 20 μL of methanol, 20 μL of the IS (icariin, 1 μg/mL), and 20 μL of formic acid and then vortex-mixed. The mixture was extracted with 800 μL of ethyl acetate by vortex mixing for 5 min at room temperature. After centrifugation at 14,000 rpm for 10 min, the supernatant was collected to a clean tube and evaporated to dryness under a nitrogen stream. The residue was reconstituted in 50 μL of 50% methanol, vortexed for 5 min, and centrifuged at 14,000 rpm for 10 min. Finally, 10 μL supernatant was injected into the LC-MS/MS system for analysis.
Male Sprague–Dawley rats (230-250 g) were obtained from Beijing HFK Experimental Animal Technology Co., Ltd. The rats were maintained under the control environmental conditions and they fasted for 12 h with free access to water before the experiments. TMYX extracts were dissolved in CMC-Na and administrated orally to rats at 8.3 g/kg. The blood samples (200 μL) were collected from the rat fossa orbitalis vein at 0, 0.03, 0.083, 0.17, 0.25, 0.5, 1, 2, 4, 6, 8, 10, 12, 24, 36, and 48 h after oral administration to heparinized tubes. And then the blood samples were centrifuged at 7,000 rpm for 10 min to get the plasma sample immediately. Finally, the plasma obtained was stored at −70°C until analysis. Pharmacokinetic parameters were calculated by the computer program “Drug and Statistics 2.0” (DAS 2.0) (Medical College of Wannan, China).

[2] = Stability of analytes in rat plasma QC samples under storage conditions; assay type: in vitro ADME; settings: n=6, gallic acid, ononin, schisandrin, stilbene glycoside, liquiritigenin, rhein, verbascoside; for Measured Concentration, auto-sampler for 12 h: prepared rat plasma samples; for Measured Concentration, -70°C for 14 days / Measured Concentration, room temperature for 6 h / Measured Concentration, three freeze-thaw cycles: rat plasma
Description: Quality control (QC) samples at three concentrations (low, medium, and high concentration) were made up of appropriate mixed standard solutions with blank blood sample as calibration solutions to meet the required concentrations. All the solutions were kept at 4°C.
The stability of analytes in plasma samples was determined by analyzing QC samples of three concentration levels at different conditions: stored at autosampler for 12 h, at room temperature for 6 h, under three freeze-thaw cycles and stored at -70°C for 14 days. All stability studies were measured in six replicates.

[3] = parameters: method as in PMID 25943824; settings: active ingredients of TMYX with high R values; cited from earlier work
[4] = oral TMYX extract 8.3 g/kg single dose, n=6
[5] = oral TMYX extract 8.3 g/kg single dose
[6] = high QC: spiked 2000 ng/mL glycyrrhizic acid, 1000 liquiritin, 200 emodin, 100 isoliquiritigenin
[7] = low QC: spiked 20 ng/mL glycyrrhizic acid, 10 liquiritin, 2 emodin, 1 isoliquiritigenin
[8] = medium QC: spiked 200 ng/mL glycyrrhizic acid, 100 liquiritin, 20 emodin, 10 isoliquiritigenin
[9] = second peak, oral TMYX extract 8.3 g/kg single dose, n=6

Structure (SMILES)	AUC(0-inf) [1, 4] [ng·h/mL]	half-life [1, 4] [h]	AUC [1, 4] [ng·h/mL]	k el [1, 4] [s⁻¹]	C max1 [1, 4] [ng/mL]	T max1 [1, 5]	Measured Concentration, auto-sampler for 12 h [2, 6] [ng/mL]	Measured Concentration, auto-sampler for 12 h [2, 7] [ng/mL]	Measured Concentration, auto-sampler for 12 h [2, 8] [ng/mL]	Measured Concentration, -70°C for 14 days [2, 6] [ng/mL]	Measured Concentration, room temperature for 6 h [2, 6] [ng/mL]	Measured Concentration, three freeze-thaw cycles [2, 6] [ng/mL]	Measured Concentration, -70°C for 14 days [2, 7] [ng/mL]	Measured Concentration, room temperature for 6 h [2, 7] [ng/mL]	Measured Concentration, three freeze-thaw cycles [2, 7] [ng/mL]	Measured Concentration, -70°C for 14 days [2, 8] [ng/mL]	Measured Concentration, room temperature for 6 h [2, 8] [ng/mL]	Measured Concentration, three freeze-thaw cycles [2, 8] [ng/mL]	antiinflammatory effects [3]	other results
O=C(O)c1cc(O)c2c(c1)C(=O)c1cccc(O)c1C2=O [rhein]	152 ± 61.3	2.84 ± 2.13	145 ± 52.6	0.000156	46.3 ± 15.6	0.36 ± 0.31 h	97.32 ± 1.05	0.97 ± 0.01	9.86 ± 0.09	85.95 ± 0.39	101.97 ± 1.07	86.7 ± 1.33	0.95 ± 0.05	0.97 ± 0.02	0.98 ± 0.03	8.71 ± 0.11	10.23 ± 0.04	8.89 ± 0.08	–	–
O=C1C[C@@H](c2ccc(O[C@@H]3O[C@H](CO)[C@@H](O)[C@H](O)[C@H]3O)cc2)Oc2cc(O)ccc21 [liquiritin]	651 ± 220	2.16 ± 1.44	637 ± 220	0.000214	199.9 ± 120.2	0.50 ± 0.46 h	869.12 ± 14.52	10.26 ± 0.11	108.02 ± 0.66	1021.69 ± 19.98	1076.07 ± 10.27	952.89 ± 11.22	10.04 ± 0.12	9.85 ± 0.09	9.26 ± 0.16	105.05 ± 1.73	108.97 ± 1.51	109.67 ± 1.86	–	–
O=C(/C=C/c1ccc(O)cc1)c1ccc(O)cc1O [isoliquiritigenin]	436 ± 154	13.5 ± 8.33	410 ± 131	1.94e-05	41.6 ± 24.2	0.28 h and 0.28 ± 0.11 h	97.47 ± 1.99	1.00 ± 0.02	9.60 ± 0.04	100.74 ± 2.95	106.11 ± 0.78	100.58 ± 0.91	0.89 ± 0.01	0.99 ± 0.01	0.89 ± 0.02	8.62 ± 0.04	10.86 ± 0.60	8.69 ± 0.14	–	detection in vivo at 48 h ([1]; 48 h after oral TMYX extract 8.3 g/kg): can still be detected in vivo at 48 h; peaks in the mean plasma concentration-time profile ([1]; oral TMYX extract 8.3 g/kg): double peaks; C max2 [1, 9]: 24.9 ± 13.5 ng/mL; T max2 [1, 9]: 7.00 h and 7.00 ± 2.45 h
O=C(O)c1cc(O)c(O)c(O)c1 [gallic acid]	238 ± 173	3.01 ± 1.35	215 ± 137	7.5e-05	56.9 ± 42.8	0.75 ± 0.67 h	184.54 ± 2.46	2.03 ± 0.05	19.27 ± 0.35	199.19 ± 1.80	205.97 ± 2.14	196.77 ± 1.09	1.99 ± 0.04	1.97 ± 0.03	1.93 ± 0.04	19.26 ± 0.22	20.77 ± 1.09	20.08 ± 0.51	–	–
COc1cc2c(c(OC)c1OC)-c1c3cc4c(c1OC[C@@H](C)[C@@](C)(O)C(=O)O[C@@H]2[C@@](C)(O)[C@@H](C)C3)OCO4 [gomisin D]	–	–	–	–	–	–	–	–	–	–	–	–	–	–	–	–	–	–	exert antiinflammatory effects in a dose-dependent manner	–
COc1cc2c(c(OC)c1OC)-c1c(cc(OC)c(OC)c1OC)C[C@](C)(O)[C@@H](C)C2 [schisandrin]	473 ± 321	2.73 ± 1.54	411 ± 239	9.44e-05	92.6 ± 53.0	1.00 ± 0.92 h	196.02 ± 2.10	1.83 ± 0.02	18.35 ± 0.09	183.83 ± 1.00	194.61 ± 1.13	189.32 ± 1.74	1.77 ± 0.03	2.00 ± 0.04	1.71 ± 0.01	17.86 ± 0.20	21.15 ± 0.50	18.28 ± 0.23	exert antiinflammatory effects in a dose-dependent manner	–
COc1ccc(-c2coc3cc(O)ccc3c2=O)cc1 [formononetin]	–	–	–	–	–	–	–	–	–	–	–	–	–	–	–	–	–	–	exert antiinflammatory effects in a dose-dependent manner	–
C[C@@H]1O[C@@H](O[C@@H]2[C@@H](O)[C@H](OCCc3ccc(O)c(O)c3)O[C@H](CO)[C@H]2OC(=O)/C=C/c2ccc(O)c(O)c2)[C@H](O)[C@H](O)[C@H]1O [verbascoside]	61 ± 29.8	1.53 ± 0.67	51.4 ± 29.8	0.000156	23.4 ± 8.7	0.37 ± 0.18 h	93.52 ± 0.27	1.05 ± 0.02	9.50 ± 0.04	107.40 ± 1.47	103.95 ± 1.33	108.42 ± 1.17	1.01 ± 0.02	0.92 ± 0.01	1.09 ± 0.01	9.81 ± 0.22	9.57 ± 0.21	10.17 ± 0.90	–	–

From article PMC6178183, “Development of a HPLC-MS/MS Method to Determine 11 Bioactive Compounds in Tongmai Yangxin Pill and Application to a Pharmacokinetic Study in Rats” (Evidence-based Complementary and Alternative Medicine : eCAM, 2018)
